This note sets out measurements from patent publication US6872718B1, “Tricyclic dihydrobenzofuran derivatives, process for the preparation thereof and agents” (Takeda Chemical Industries, Ltd., priority 1999, dated 2005).

The subject of this assay is lipoperoxide produced in brain homogenate. Nature of the assay: Inhibitory effect on lipid peroxidation in rat cerebral cortical homogenates (thiobarbituric acid method). Type of assay: biochemical. The settings on record: rat cerebral cortical homogenate supernatant, 37° C. for 30 minutes, absorbance at 532 nm. On the procedure:
Inhibitory Effect on Lipid Peroxidation in Rat Cerebral Cortical Homogenates and Orally Treated Mice
Quantitative determination of lipoperoxide produced in brain homogenate was performed according to the method of Stocks et al. (Clin. Sci. Mol. Med. 47-215(1974)). As animals, brains of Jcl. Wistar male rats, 10-13 weeks age, were used. Rat cerebral cortices were obtained after decapitation, homogenized in an ice-cooled phosphate saline buffer (50 mM Ph 7.4) (Nichion Microhomogenizer, S-310E), centrifuged at 10,000 g for 10 minutes (Hitachi CF15D type, RT15A6 Anglerotor), and the supernatant was used in a test. This supernatant was diluted 3-fold with the same buffer. To this 1 mL were added […] of test drugs dissolved in dimethyl sulfoxide (DMSO) to the final concentration of 0.0125, 0.025, 0.05, 0.10, 0.20, 0.40, 0.80 and 1.60 μM, respectively, which was incubated at 37° C. for 30 minutes. The reaction was stopped by addition of 200 μL of 35% perchloric acid, and centrifuged at 13,000 g for 10 minutes. To 1 mL of this supernatant was added 0.5 mL of 2-thiobarbituric acid (500 mg/100 mL) dissolved in 50% acetic acid, heated to boil at 95° C. for 15 minutes, which was determined by the absorbance at 532 nm. […]

Counter-ions that a name gives are not always drawn.

One may read the IC50 as the concentration that gives 50% inhibition. A higher IC50 goes with lower potency. As to `Cc1c2c(c(C)c3c1NCC3)OC(C)(CN1CCC(c3ccccc3)CC1)C2` (centres unmarked) [Example 11, 3,5,6,7-Tetrahydro-2,4,8-trimethyl-2-[(4-phenylpiperidino)methyl]-2H-furo[2,3-f]indole], the IC50 came to 0.067 µM.
`Cc1c2c(c(C)c3c1NCC3)OC(C)(CN1CCC(NC(c3ccccc3)c3ccccc3)CC1)C2` (centres unmarked) [Example 18, N-(Diphenylmethyl)-1-[(3,5,6,7-tetrahydro-2,4,8-trimethyl-2H-furo[2,3-f]indol-2-yl)methyl]-4-piperidinamine trihydrochloride] displayed an IC50 of 0.36 µM.
